Data on 3 compounds can be found in US10106777B2, “Directed differentiation and maturation of pluripotent cells into hepatocyte like cells by modulation of Wnt-signalling pathway” (Takara Bio Europe AB, priority 2010, dated 2018).

Series [1] relates to hESC-HEP. Briefly: Hepatic marker expression in hESC-HEP, GSK-3 inhibitors at mid and late stage. The format is cell-based, human. To be noted: Kenpaullone 0.23 μM days 3-9, 2.5 μM days 10-23, compared to BIO. The text has this:
(§1) FIGS. 13A and B. Relative expression levels of hepatic markers in hESC-HEP generated with modulation of Wnt-signalling by GSK-3 inhibitors other than BIO during both mid (days 3-9) and late stage (days 10-23) differentiation. Treatments shown include: hESC-HEP (negative control; cells never exposed to GSK-inhibitors), BIO, SB216763, Kenpaullone, Indirubin-3-O; also included is a second negative control undifferentiated hESC cells (hESC); also included is a further negative control graph showing the expression levels of a housekeeping gene (Creb) across the various samples.
Differentiating cells were exposed to GSK-3 inhibitors during both mid (days 3-9) and late (from day 10-23) stages of differentiation. Three alternative GSK-3 inhibitors were tested alongside BIO to determine effectiveness in inducing hepatic marker expression (SB216763, Kenpaullone and Indirubin-3-O) and results were compiled both for Phase I enzymes and Phase II enzymes and hepatic markers, with two negative controls (hESC-HEP not exposed to GSK-3 inhibition during differentiation, and undifferentiated hESC cells). During days 3-9 of differentiation, concentrations of GSK-3 inhibitors used were as follows: BIO 3.5 μM, SB216763 34 nM, Kenpaullone 0.23 μM and Indirubin-3-O 22 nM. […]

Series [2] relates to hESC-HEP. Briefly: Hepatic marker expression in hESC-HEP, GSK-3 inhibitors at later stage (from day 10). The format is cell-based, human. To be noted: GSK-3 inhibitor from day 10, compared to BIO.
Excerpt: as §1, with “12A” for “13A”, “later maturation period (day 10 onwards).” for “both mid (days 3-9) and late stage (days 10-23) differentiation.”, “GSK-inhibitor during differentiation),” for “GSK-inhibitors),”, “(hESC). […] GSK-3 inhibitors were present only during later differentiation (from day 10 onwards);” for “(hESC);”
Furthermore, differentiating cells were exposed to GSK-3 inhibitors only during later (from day 10) stages of differentiation. Three alternative GSK-3 inhibitors were tested alongside BIO to determine effectiveness in inducing hepatic marker expression (SB216763, Kenpaullone and Indirubin-3-O) and results were compiled both for Phase I and Phase II enzymes and hepatic markers, with two negative controls (hESC-HEP not exposed to GSK-3 inhibition during differentiation, and undifferentiated hESC cells). […]

Series [3] has as its system hESC-HEP cultures (cell line SA002). In words: Functional CYP1A activity in hESC-HEP cultures with NaB together with BIO. The format is cell-based, human. Particulars: NaB 1 mM together with BIO 1.4 μM at day 21-25, vs parallel cultures without NaB. The method, then:
FIG. 9. […] Analysis is performed day 24-25, n=1.
Cell line SA002 from mEF cultures was used as starting material.

For series [4], the system named is feeder free cultured hPS cells. Briefly: Hepatic gene marker expression in hepatocyte-like cells from feeder free hESC. The format is cell-based, human. To be noted: with vs without GSK3 inhibitor. The method, then:
The split media (SM) gave the same levels as without split media. Two controls were used undifferentiated cells cultured feeder free (UD feeder free) and a perpetual cell line from a hepatocellular carcinoma (HepG2). The levels of AFP, KRT18 (Keratin 18) and KRT19 (Keratin 19) indicate that the cells are maintained in a stage where they still have the ability to proliferate. The cells were 23 days when they were analyzed, n=3.

In series [5] the test system is UDP-glucuronyltransferases (UGTs). Briefly: UGT metabolic activity in hESC-HEP from feeder-free hESC. The format is cell-based, human. The text has this:
FIG. 11. Relative expression levels of UGT hepatic metabolic markers in hESC-HEP generated with or without Wnt-signalling modulation by GSK-3 inhibitor BIO during endoderm to hepatocyte-like cell phase. FC=fold change relative expression, control set […] to 1 for each example. Graphs show expression levels in cells treated with one of three differentiation/maturation protocols (see example 21) and +/−GSK-3 inhibitor treatment for activity of UGTs on specific UGT substrates: (UGT1A1,[8-estradiol]); (UGT2B, [8-estradiol]; (UGT1A6, [1-Napthol]), (UGT1A9, [Propofol]), (UGT2B7, [Naloxone]). A non-specific control (Methylumbelliferone) was also included. n=number of experiments averaged to obtain results.
Metabolic activity of hESC-HEP derived from hESCs cultured in feeder-free conditions (see Examples 12-14) was measured to determine the effect of GSK-3 inhibition during development and maturation by examining the activity of several UDP-glucuronyltransferases (UGTs) (enzymes that participate in the metabolism of many drugs). Activity of these UGTs was tested via several substrates, namely: β-estradiol (UGT1A1, 3-glucuronide), 1-naphthol (UGT1A6), propofol (UGT1A9), and naloxone (UGT2B7). A non-specific control (Methylumbelliferone) was also included (see FIGS. 12A-B). hESC-HEPs were differentiated essentially according to Example 12, up to day 7. […]

A further series relates to Beta-catenin. Briefly: Immunolocalisation of Beta-catenin in hES-HEP. The format is cell-based, human. The source says: C) Immunolocalisation of Beta-catenin and Dapi staining of hES-HEP-BIO (A) and hES-HEP+BIO (B) Beta-catenin is localized at the cell membrane in hES-HEP cultures not treated and treated with BIO. […] Day 21, 20×
The subject of series [6] is hESC derived hepatocytes (hESC-HEP).
Series [7] has the same test system. In words: Morphological observation of purity and homogeneity of hESC-HEP cultures. The format is cell-based, human. The method, then: FIGS. 8A-E. Differentiation of hESC derived hepatocytes in the presence of GSK3 inhibitor from day 3 purifies hepatocytes from other cell types.
A-C show hESC-HEP at day 17, differentiated by protocol i or ii according to FIG. 2. D-E show hESC-HEP at day 15, differentiated by protocol iii or vi according to FIG. 2,
B) 1 μM BIO day 3-9, protocol ii.
C) 5 μM BIO day 3-9, protocol ii.
D) 0 μM BIO day 3-9, 1.5 μM BIO day 10-15 protocol iii,
E) 3.5 μM BIO day 3-9, 1.5 μM BIO day 10-15 protocol vi.
A and B show hESC-HEP cultures which are over grown by another cell type where as in C the majority of cells in the culture are hepatocyte-like cells. E represent a purer hESC-HEP culture than D. White arrow: hepatocyte-like cells, black arrow: other cell type than hepatocyte-like cells. Scale bar: 100 μm.
(§2) Thus it appears advantageous to add GSK-3 inhibitors at a later stage of differentiation to avoid massive cell death seen when it is added at day 3. […] In addition, GSK3 inhibitors at this stage may contribute/stimulate to hepatic induction of the competent endoderm.

Series [8] has as its system hES cells.
Protocol: FIGS. 6A and B. hES cells cultured with and without the GSK3 inhibitor were compared for their hepatic profile and homogeneity, as described in examples 12 and 13. Where a GSK3 inhibitor was added it was added at a later stage of the differentiation, according to FIG. 3B.
A) Results from Activity Assay of CYP1A, 3A and 2C. […] The cells were 30 days, n=8. hPS vs hPS+BIO.B)
Series [9] has as its system hES cells. This is another data set of the same source.
Protocol: Where a GSK3 inhibitor was added it was added at a later stage of the differentiation, according to FIG. 3B.
B) Results of hepatic markers from Q-PCR of the same cells that were analysed by Activity assay (Q-PCR hPS+/−BIO) n=4.
The subject of the next series is MEF cultured hESC. Briefly: Cell death on addition of BIO at day 3 of differentiation. The format is cell-based, human. The method, then:
as §2

The test system of series [10] is hiPS cells.
Protocol: FIGS. 5A and B. hiPS cells cultured with and without the GSK3 inhibitor were compared for their hepatic profile and homogeneity. Where a GSK3 inhibitor was added it was added at a later stage of the differentiation, according to FIG. 3. Derivation of hepatocytes from human induced pluripotent stem cells (hiPS).
The cells were 30 days, n=8. hiPS vs hiPS+BIO.
The undifferentiated hiPS cells were cultured in Activin A supplemented media to stimulate initial differentiation into partly differentiated cells. The hiPS derived partly differentiated cells were then passaged (to plates coated with 0.1% Gelatin or Matrigel 0.016 mM) and induced to hepatic progenitor cells and then to hepatocyte like cells in media with and without BIO supplementation, see FIG. 3 A)-B).
The hiPS cells were cultured on mEFs until they were confluent. The cells were washed twice in PBS+/+ and treated with Activin A containing medium (See FIG. 3 a-b). The cells adapted an endoderm like morphology around day 3. When the majority of the cells were partly differentiated, the cells were exposed to media supplemented with factors inducing the cells into hepatocyte-like cells (See FIG. 3A)-B)) plus or minus BIO.
Series [11] deals with hESC-HEP (cell-line SA002).
Protocol: Qrt-PCR data is presented as fold change gene expression levels of HepG2 except for BSEP, which graph show fold change of calibrator. N=2-3, mean±SEM.
hESC-HEP were derived from cell-line SA002 cultures on mEF-layer according to Example 9, FIG. 2, protocol iii (absence of BIO between day 3-10) or Example 11, FIG. 2, protocol iv (presence of 3.5 μM BIO between day 3-10). Total RNA was collected and isolated from the two hES-HEP cultures at day 21, 24, 26 and 28 by using RNA isolation kit from Qiagene. Quantitative reverse transcriptase PCR, QrtPCR, by using Taqman probes, was performed for the following hepatic marker genes: phase I drug metabolizing enzymes; CYP (cytochrome P450) 3A4, 3A5, 3A7, 2C9, phase II drug metabolizing enzymes GSTA1 (glutation-S-transferas A1), UGT2B7 (UDP glucuronosyltransferase 2B7), phase III, transporters; MRP2 (multi-drug residence protein 2), BSEP (bile salt export pump), and general hepatic markers; A1AT (alpha-1 antitrypsin), ALB (albumin) and TAT (tyrosine-amino transferas). All data was normalised to the house-keeping gene CREB. RNA from HepG2 cultures was included and data is presented as fold change of HepG2. […] Thus, BSEP expression is instead presented as fold change of a so called calibrator which contains RNA from different sources.
The test system of series [12] is hiPS cells. The source holds these as a separate data set.
Series [13] relates to feeder free cultured hPS cells.
Protocol: Feeder free cultured hPS cells with and without the GSK3 inhibitor, as well as an alternative method where a split media as described in FIG. 3C were compared for their hepatic profile and homogeneity.
A) Results from Activity assay of CYP1A and CYP3A measured by conversion of paracetamol and OH_midazolam respectively.
hESCs cultured under feeder free conditions were incubated in media supplemented with Activin A. The cells were then induced into hepatocytes by differentiating them to hepatic progenitor cells and then to more mature hepatocyte like cells. Cells cultured with and without the GSK3 inhibitor were compared for their hepatic profile and homogeneity.

Turning to `O=C1Cc2c([nH]c3ccc(Br)cc23)-c2ccccc2N1` [Kenpaullone, 9-Bromo-7,12-dihydro-indolo[3,2-d][1]benzazepin-6(5H)-one], the “expression of most of the Phase I enzymes” value in the series with hESC-HEP [1] is on record as “higher levels of expression than BIO”. The “expression of most of the Phase I enzymes and hepatic markers” value in the series with hESC-HEP [2] is listed as “higher levels of expression than BIO”.

Consider `CCCC(=O)[O-].[Na+]` [NaB, Sodium Butyrate], for which, in [3], the CYP1A activity result is “increased”.

Regarding `O=C1Nc2cc(Br)ccc2/C1=C1/Nc2ccccc2/C1=N\O` [BIO, (2′Z,3′E)-6-Bromoindirubin-3′-oxime], in [4], the “hepatic gene marker expression (FIG. 4B)” value is given as “higher”. For the same compound, the “increase of UGT1A1 activity” value in series [5] (+/− BIO 1.4 μM days 14-25) was “much greater than for others”. Besides, the “activity of most of the UGTs” value in series [5] (+/− BIO 1.4 μM days 14-25, three differentiation protocols) is on record as “greater activity”. Moreover, the “Beta catenin in the cytoplasm and nuclei” value in the series on Beta-catenin (BIO treated hES-HEP cultures, Day 21) was “commonly observed”. In the series on Beta-catenin (upon BIO treatment), the beta-catenin localisation entry is recorded as “translocate from cell membrane to nucleus”. For the same compound, in [6], the “Cyp1A activity over time” value is “increased during time”. Moreover, the “culture purity (morphology)” value in series [7] (3.5 μM BIO from day 3 (Example 11) vs untreated (Example 9)) was “more purified hESC-HEP compared to untreated cultures”. Besides, in series [7] (5 μM BIO from day 3, surviving cells passaged day 4), the “culture homogeneity (morphology)” value is “highly purified and homogenous culture of hESC-HEP”. The “final purity of the cell populations” value in [7] (BIO addition at a later stage (day 10+)) is “greater final purity”. In series [7] (low concentration (1 μM) of BIO, day 3-9), the “culture homogeneity (morphology)” value is given as “highly heterogeneous cultures where hardly any hepatocyte-like cells were observed”. Besides, in the series on hES cells [8], the “activity of CYP1A” value is “increased”, the “activity of CYP2C” value is “increased” and the “activity of CYP3A” value is recorded as “increased”. Also, the “expression of CYP1A1, CYP1A2, CYP3A4, CYP2C9 and CYP7A1” value in the series with hES cells [9] is “clear increase”. Further, in the series with hES cells [9] (hPS+/−BIO, n=4), the AAT entry is given as “increase”; the “transporters such as MRP2, Oct-1, GSTA1, BCEP and OATP2” value is “maintained at levels showing a maturation”. In the series on MEF cultured hESC (3.5 μM BIO from day 3, compared to 5 μM BIO), the cell death entry is given as “less dramatic cell death”. Besides, the cell death result in the series on MEF cultured hESC (5 μM BIO day 3) is recorded as “dramatic cell death”. For the same compound, in the series on hiPS cells [10], the CYP1A activity result was “Increased”, the CYP3A activity entry is given as “Increased”, the “activity of CYP1A” value was “increased” and the “activity of CYP3A” value was “increased”. Moreover, the “metabolic activity (FIG. 5A)” value with hiPS cells [10] is given as “greater metabolic activity”. In series [11] (BIO supplemented at day 3), the A1AT expression entry is reported as “strong increase at day 28”; the ALB expression result is recorded as “decreased at day 26”; the “GSTA1 and UGT2B7 expression” value is given as “increased expression”; the “MRP2 and BSEP expression” value is listed as “increased expression”. Further, in series [11] (with BIO vs without BIO, all days), the TAT expression levels entry was “higher expression levels”. Also, in the series with hiPS cells [12], the “expression of CYP1A1, CYP1A2, CYP3A4 and CYP7A1” value is “clear increase”; the “levels of CYP2C9” value is recorded as “maintained high”; the “mRNA of CD44, AFP, CK18, CK19, CYP1A1, CYP1A2, CYP3A4, CYP2C9, CYP7A1, Albumin, OATP2, A1AT, MRP2” value was “Increased”; the “mRNA of CYP1A1, CYP1A2, CYP3A4, CYP2C9, CYP7A1, MRP2, CD44, AFP, CK18, CK19” value is reported as “Increased”. Also, in the series with hiPS cells [12] (hiPS+/−BIO, n=4), the AAT entry is “maintained on a high level”, the AFP levels entry is given as “decreased” and the Albumin entry is “maintained at a level high compared to known protocols”. Besides, the “transporters such as MRP2, Oct-1, GSTA1, BCEP and OATP2” value in the series on hiPS cells [12] (hiPS+/−BIO, n=4, vs HepG2) is “maintained at levels significantly higher than HepG2”. Also, in the series with hiPS cells [12] (media supplemented with BIO vs absence of GSK-3 inhibitor), the “maturity of hiPS derived cells (Q-PCR, immunocytochemistry, Activity Assay)” value is “became more mature”. Also, the “metabolic activity (FIG. 4A)” value in series [13] is recorded as “higher”.
